Measurements published in the NIST ThermoML archive (doi:10.1016/j.tca.2015.06.017).

Assay: xn = mol fraction of the nth substance listed
Settings: Liquid, Vibrating tube method

CC(C)CCl [1-chloro-2-methylpropane] + CCCCCCC
mass density [kg/m3]
Settings	293.15 K	298.15 K
100 kPa, x2 = 0.0531	–	857.37
100 kPa, x2 = 0.1023	–	844.58
100 kPa, x2 = 0.2009	–	820.42
100 kPa, x2 = 0.3009	–	797.89
100 kPa, x2 = 0.3981	–	777.63
100 kPa, x2 = 0.4986	–	758.2
100 kPa, x2 = 0.5998	–	740.04
100 kPa, x2 = 0.7038	–	722.73
100 kPa, x2 = 0.7993	–	707.93
100 kPa, x2 = 0.8995	–	693.43
100 kPa, x2 = 0.9507	–	686.38
2000 kPa, x2 = 0.0531	–	859.45
2000 kPa, x2 = 0.1023	–	846.69
2000 kPa, x2 = 0.2009	–	822.61
2000 kPa, x2 = 0.3009	–	800.07
2000 kPa, x2 = 0.3981	–	779.77
2000 kPa, x2 = 0.4986	–	760.3
2000 kPa, x2 = 0.5998	–	742.16
2000 kPa, x2 = 0.7038	–	724.79
2000 kPa, x2 = 0.7993	–	709.96
2000 kPa, x2 = 0.8995	–	695.5
2000 kPa, x2 = 0.9507	–	688.51
5000 kPa, x2 = 0.0531	–	862.78
5000 kPa, x2 = 0.1023	–	849.99
5000 kPa, x2 = 0.2009	–	825.85
5000 kPa, x2 = 0.3009	–	803.24
5000 kPa, x2 = 0.3981	–	782.87
5000 kPa, x2 = 0.4986	–	763.35
5000 kPa, x2 = 0.5998	–	745.14
5000 kPa, x2 = 0.7038	–	727.73
5000 kPa, x2 = 0.7993	–	712.83
5000 kPa, x2 = 0.8995	–	698.32
5000 kPa, x2 = 0.9507	–	691.31
7000 kPa, x2 = 0.0531	–	864.94
7000 kPa, x2 = 0.1023	–	852.13
7000 kPa, x2 = 0.2009	–	827.95
7000 kPa, x2 = 0.3009	–	805.31
7000 kPa, x2 = 0.3981	–	784.94
7000 kPa, x2 = 0.4986	–	765.38
7000 kPa, x2 = 0.5998	–	747.13
7000 kPa, x2 = 0.7038	–	729.69
7000 kPa, x2 = 0.7993	–	714.76
7000 kPa, x2 = 0.8995	–	700.23
7000 kPa, x2 = 0.9507	–	693.2
10000 kPa, x2 = 0.0531	–	868.11
10000 kPa, x2 = 0.1023	–	855.26
10000 kPa, x2 = 0.2009	–	831
10000 kPa, x2 = 0.3009	–	808.29
10000 kPa, x2 = 0.3981	–	787.84
10000 kPa, x2 = 0.4986	–	768.21
10000 kPa, x2 = 0.5998	–	749.91
10000 kPa, x2 = 0.7038	–	732.42
10000 kPa, x2 = 0.7993	–	717.45
10000 kPa, x2 = 0.8995	–	702.88
10000 kPa, x2 = 0.9507	–	695.78
20000 kPa, x2 = 0.0531	–	877.88
20000 kPa, x2 = 0.1023	–	865.08
20000 kPa, x2 = 0.2009	–	840.5
20000 kPa, x2 = 0.3009	–	817.71
20000 kPa, x2 = 0.3981	–	797.11
20000 kPa, x2 = 0.4986	781.73	777.37
20000 kPa, x2 = 0.5998	763.14	758.88
20000 kPa, x2 = 0.7038	745.41	741.28
20000 kPa, x2 = 0.7993	730.25	726.13
20000 kPa, x2 = 0.8995	715.39	711.41
20000 kPa, x2 = 0.9507	708.22	704.25
30000 kPa, x2 = 0.0531	891.52	886.78
30000 kPa, x2 = 0.1023	878.34	873.9
30000 kPa, x2 = 0.2009	853.68	849.18
30000 kPa, x2 = 0.3009	830.55	826.21
30000 kPa, x2 = 0.3981	809.73	805.55
30000 kPa, x2 = 0.4986	789.74	785.57
30000 kPa, x2 = 0.5998	771.06	766.94
30000 kPa, x2 = 0.7038	753.18	749.15
30000 kPa, x2 = 0.7993	737.88	733.94
30000 kPa, x2 = 0.8995	722.93	719.07
30000 kPa, x2 = 0.9507	715.7	711.84
40000 kPa, x2 = 0.0531	899.47	895.02
40000 kPa, x2 = 0.1023	886.28	882.04
40000 kPa, x2 = 0.2009	861.43	857.18
40000 kPa, x2 = 0.3009	838.11	834.09
40000 kPa, x2 = 0.3981	817.16	813.22
40000 kPa, x2 = 0.4986	797.04	793.13
40000 kPa, x2 = 0.5998	778.18	774.36
40000 kPa, x2 = 0.7038	760.15	756.46
40000 kPa, x2 = 0.7993	744.84	741.11
40000 kPa, x2 = 0.8995	729.76	726.12
40000 kPa, x2 = 0.9507	722.48	718.83
50000 kPa, x2 = 0.0531	906.83	902.53
50000 kPa, x2 = 0.1023	893.73	889.53
50000 kPa, x2 = 0.2009	868.58	864.58
50000 kPa, x2 = 0.3009	845.22	841.36
50000 kPa, x2 = 0.3981	824.17	820.34
50000 kPa, x2 = 0.4986	803.9	800.16
50000 kPa, x2 = 0.5998	784.93	781.27
50000 kPa, x2 = 0.7038	766.85	763.24
50000 kPa, x2 = 0.7993	751.39	747.78
50000 kPa, x2 = 0.8995	736.21	732.67
50000 kPa, x2 = 0.9507	728.86	725.32
60000 kPa, x2 = 0.0531	913.81	909.64
60000 kPa, x2 = 0.1023	900.5	896.54
60000 kPa, x2 = 0.2009	875.39	871.48
60000 kPa, x2 = 0.3009	851.83	848.21
60000 kPa, x2 = 0.3981	830.75	827.13
60000 kPa, x2 = 0.4986	810.36	806.82
60000 kPa, x2 = 0.5998	791.29	787.83
60000 kPa, x2 = 0.7038	773.13	769.72
60000 kPa, x2 = 0.7993	757.58	754.16
60000 kPa, x2 = 0.8995	742.31	738.97
60000 kPa, x2 = 0.9507	734.9	731.55
65000 kPa, x2 = 0.0531	917.1	913.06
65000 kPa, x2 = 0.1023	903.79	899.93
65000 kPa, x2 = 0.2009	878.75	874.82
65000 kPa, x2 = 0.3009	855.14	851.5
65000 kPa, x2 = 0.3981	833.84	830.36
65000 kPa, x2 = 0.4986	813.47	810
65000 kPa, x2 = 0.5998	794.31	790.97
65000 kPa, x2 = 0.7038	775.99	772.79
65000 kPa, x2 = 0.7993	760.39	757.19
65000 kPa, x2 = 0.8995	745.06	741.93
65000 kPa, x2 = 0.9507	737.63	734.52
